One compound from ChEMBL document CHEMBL1201862, “PubChem BioAssay data set” (2004) can be followed below.

The source made the active and inactive calls. The rule behind the calls is not given here.

Experiment [1] concerns the target T1, High affinity choline transporter 1 (Homo sapiens, UniProt Q9GZV3).
T1 sequence (Q9GZV3 whole entry): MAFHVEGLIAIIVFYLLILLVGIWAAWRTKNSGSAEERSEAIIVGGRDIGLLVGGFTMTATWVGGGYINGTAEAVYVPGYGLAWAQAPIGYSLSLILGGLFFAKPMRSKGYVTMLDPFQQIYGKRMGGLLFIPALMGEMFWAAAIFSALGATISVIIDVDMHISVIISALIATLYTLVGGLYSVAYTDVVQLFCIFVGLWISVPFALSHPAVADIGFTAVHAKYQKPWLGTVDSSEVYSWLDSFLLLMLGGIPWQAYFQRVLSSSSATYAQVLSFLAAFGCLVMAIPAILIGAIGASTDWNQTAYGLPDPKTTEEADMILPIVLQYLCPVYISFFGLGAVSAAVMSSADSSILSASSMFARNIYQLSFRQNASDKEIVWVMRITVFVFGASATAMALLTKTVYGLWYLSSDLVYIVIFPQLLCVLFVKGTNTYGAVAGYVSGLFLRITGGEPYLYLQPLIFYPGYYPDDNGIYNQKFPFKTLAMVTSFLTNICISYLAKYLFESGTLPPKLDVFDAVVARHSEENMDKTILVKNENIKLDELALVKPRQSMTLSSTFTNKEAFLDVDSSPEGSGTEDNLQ
The experiment in a line: human choline transporter blockers, potency – cell-based, 5-point CRC, membrane potential dye, dose response (AID 504840). The class given is functional.

Experiment [2] has as its target T1, High affinity choline transporter 1. The experiment in a line: human choline transporter blockers, potency – cell-based, 10-point CRC, membrane potential dye, dose response (AID 588401).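 Note: membrane potential dye fluorescence of choline-evoked depolarization via CHT.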 The class given is functional.

As for `O=C(O)CC1=C(Nc2ccccc2)C(=O)N(c2ccccc2)C1c1ccc(F)cc1` (configuration not stated), the IC50 was 3.9 µM (active) in experiment [1] and 0.751 µM (active) in experiment [2].

By IC50 is commonly meant the concentration that inhibits the measured activity by half.
